Results taken from ChEMBL document CHEMBL1201862, “PubChem BioAssay data set” (2004).
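Briefly, cells in 96-well plates were exposed to five compound concentrations for 48 h, and endpoints were estimated by linear interpolation. Here, GI50 denotes the concentration required for 50% inhibition of growth.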 Active and inactive are the calls of the source. No stated cut-off is given here; in the data, active = GI50 up to about 1.1 µM and inactive = higher.

Key:
Experiment in all cases: NCI tumour cell line growth inhibition, 48 h
Hs-578T = system: Hs-578T
BT-549 = system: BT-549
DMS-273 = system: DMS-273
LXFL 529 = system: LXFL 529
DMS-114 = system: DMS-114
KM-20L2 = system: KM-20L2
M19-MEL = system: M19-MEL
XF498 = system: XF498

Compound | GI50 (Hs-578T) | GI50 (BT-549) | also measured
Cc1ccc(SCN2CCCCC2)cc1.O=C(Cl)c1ccc([N+](=O)[O-])cc1 | 10.4 µM (inactive) | 1.9 µM (inactive) | 
Oc1c(CN2CCOCC2)ccc(CN2CCOCC2)c1O | > 100 µM (inactive) | 81.3 µM (inactive) | 
CC(C)(C)c1ccc(O)c(CN(Cc2cc(C(C)(C)C)ccc2O)c2ccccc2)c1 | 18.6 µM (inactive) | 21 µM (inactive) | 
O=C(O)c1cscc1Cc1cccs1 | > 100 µM (inactive) | > 100 µM (inactive) | 
OCCCNCc1ccncc1 | > 100 µM (inactive) | > 100 µM (inactive) | 
Nc1nc(SCC(=O)O)nc(O)c1N | > 100 µM (inactive) | > 100 µM (inactive) | 
COc1cc(C2C3=C(COC3=O)Oc3cc4c(cc32)OCO4)ccc1O (stereo unspecified) | 0.329 µM (active) | 1.1 µM (active) | 
C(=N\OCc1ccccc1)/c1ncccc1C1OCCO1 |  |  | GI50 (DMS-273): > 100 µM (inactive); GI50 (LXFL 529): > 100 µM (inactive); GI50 (DMS-114): > 100 µM (inactive); GI50 (KM-20L2): > 100 µM (inactive); GI50 (M19-MEL): > 100 µM (inactive)
O=C1NC(=O)C2=C1CCC2O (stereo unspecified) | > 100 µM (inactive) |  | 
CN(/N=C/c1cccc2cccnc12)c1ccc([N+](=O)[O-])cc1 |  |  | GI50 (DMS-273): > 100 µM (inactive); GI50 (LXFL 529): > 100 µM (inactive); GI50 (DMS-114): > 100 µM (inactive); GI50 (KM-20L2): > 100 µM (inactive); GI50 (XF498): > 100 µM (inactive); GI50 (M19-MEL): > 100 µM (inactive)
Cc1cc2c(c(C(=O)NCCC(=O)O)c1)Oc1c(cc(C)cc1C(=O)NCCC(=O)O)S2 | > 100 µM (inactive) | > 100 µM (inactive) | 
Cc1ccc(N(C)S(=O)(=O)c2ccccc2)cc1 | > 100 µM (inactive) | 61 µM (inactive) | 
Cc1nc(C(N)=S)sc1C(=O)C/C(=N/N)C(=O)Nc1cccc(Cl)c1C | > 100 µM (inactive) | > 100 µM (inactive) | 
C=C1CCc2occ(C)c2C2C1C1=C(CC(C)C1=O)C1OC12C (stereo unspecified) |  |  | GI50 (LXFL 529): > 100 µM (inactive); GI50 (DMS-114): 99.1 µM (inactive); GI50 (KM-20L2): > 100 µM (inactive); GI50 (XF498): 91.6 µM (inactive); GI50 (M19-MEL): > 100 µM (inactive)
CCOC(=O)C1(Cc2ccc3c(c2)CCC3)Cc2cc3c(cc2C1)CCC3 | 34.8 µM (inactive) | 90.4 µM (inactive) | 
Cc1ccc([N+](=O)[O-])cc1NC(=O)C(=O)Cc1cc(=O)oc2cc(O)ccc12 |  |  | GI50 (LXFL 529): 56.5 µM (inactive); GI50 (DMS-114): 18.5 µM (inactive); GI50 (KM-20L2): 63.7 µM (inactive); GI50 (XF498): > 100 µM (inactive); GI50 (M19-MEL): > 100 µM (inactive)

Compound | GI50 (Hs-578T) | GI50 (BT-549) | also measured
NC(=S)Nc1nc(=S)[nH]c2c1SC1=N/C(=C\c3ccco3)C(=O)N12 | > 100 µM (inactive) | > 100 µM (inactive) | 
C=C1CC2(C[C@@H](c3ccccc3)O[C@@H](c3ccccc3)C2)OC1=O (stereo partly specified) | 2.31 µM (inactive) | 1.76 µM (inactive) | 
N/C(=N\Nc1cccc(Cl)c1)c1cccnc1 | > 100 µM (inactive) | > 69 µM (inactive) | 
Cc1cccc2c1Oc1cc(Cl)ccc1C2NC(=O)CN(C)C (stereo unspecified) |  |  | GI50 (DMS-273): 28.8 µM (inactive); GI50 (LXFL 529): 57.4 µM (inactive); GI50 (DMS-114): 34.9 µM (inactive); GI50 (KM-20L2): 20 µM (inactive); GI50 (M19-MEL): 20.9 µM (inactive)
Cc1ccc(S(=O)(=O)N(CCNC(=O)c2cccc(O)c2O)c2cc3c4c(c2)Oc2cccc5c2C4(C)c2c(cccc2O3)O5)cc1 | > 100 µM (inactive) |  | 
CCN(CCO)CC1COc2ccccc2O1 (stereo unspecified) | > 100 µM (inactive) | > 100 µM (inactive) | 
Cc1ccc(C[N+](C)(C)N)cc1C | > 10 µM (inactive) | > 10 µM (inactive) | 
CSc1ccc(OCC2OC2O)cc1 (stereo unspecified) |  |  | GI50 (DMS-273): 34.2 µM (inactive); GI50 (LXFL 529): 29 µM (inactive); GI50 (DMS-114): 12.9 µM (inactive); GI50 (KM-20L2): 46.2 µM (inactive); GI50 (XF498): 30.5 µM (inactive); GI50 (M19-MEL): 37.7 µM (inactive)
CCCC(=O)N1CCN(c2ccc3c(c2)OC(C)O3)CC1 (stereo unspecified) | > 100 µM (inactive) | > 100 µM (inactive) | 
CC(=O)OCC1=C(CCC#N)N2C(=O)C(NC(=O)Cc3cccs3)C2[S+]([O-])C1 (stereo unspecified) |  |  | GI50 (DMS-273): > 100 µM (inactive); GI50 (DMS-114): > 100 µM (inactive); GI50 (KM-20L2): > 100 µM (inactive); GI50 (XF498): > 100 µM (inactive); GI50 (M19-MEL): > 100 µM (inactive)
CC(C)CCC[C@@H](C)[C@H]1CC[C@H]2[C@@H]3CC=C4CC(OCCCCN(O)CCCSC5OC(CO)C(O)C(O)C5O)CC[C@]4(C)[C@H]3CC[C@]12C (stereo partly specified) |  |  | GI50 (DMS-273): 32 µM (inactive); GI50 (LXFL 529): 23 µM (inactive); GI50 (DMS-114): 25.5 µM (inactive); GI50 (KM-20L2): > 100 µM (inactive); GI50 (XF498): > 100 µM (inactive); GI50 (M19-MEL): > 100 µM (inactive)
CC(=O)N1C(=O)c2cc3ccccc3cc21 | > 100 µM (inactive) |  | 
Cc1ccc(/C=N/n2c(=O)[nH]c3ccccc3c2=O)cc1 | > 100 µM (inactive) | > 100 µM (inactive) | 
Oc1ccc2ccccc2c1/N=N/c1cc(Cl)ccc1Cl | 10.1 µM (inactive) | > 50 µM (inactive) | 
NC12c3c4cccc3Oc3cccc(c31)Oc1cccc(c12)O4 | 31.3 µM (inactive) | > 50 µM (inactive) | 
